The values below come from PMC6120190, “Identification of two distinct peptide-binding pockets in the SH3 domain of human mixed-lineage kinase 3” (The Journal of Biological Chemistry, 2018).

No end group written: not given here. *: point of attachment. Biotin = O=C1N[C@H]2[C@H](CS[C@H]2CCCCC(=O)*)N1

In series [1] the test system is GST-MLK2 SH3. Briefly: specificity ELISA, MLK2. The series is classed as binding, human. The conditions noted are these: biotinylated peptide ≈2 μM on NeutrAvidin; GST-SH3 0.15 μM, 1–1.5 h; anti-GST-HRP; triplicate (Fig. 8). The procedure:
(§1) Figure 8. Binding of MIP and NS5A peptides to SH3 domain of other members of MLK subfamily (MLK1–4). To determine whether MIP and NS5A can interact with SH3 domains of MLK1–4 proteins, the purified GST-MLK1–4 SH3 domains were incubated with biotinylated peptides, NS5A peptide ([…]-GGG-K-biotin), MIP ([…]-K-biotin), and MIP-R12A ([…]-K-biotin), immobilized on a NeutrAvidin-coated 96-well ELISA plate. Binding of SH3 domain was detected with anti-GST antibody conjugated to HRP. […] See also Fig. S6.
(§2) Two plasmids, gifts from Dr. Gerardo Morfini, University of Illinois at Chicago, encoding a GST protein fused to either the WT or mutant Y52A of the SH3 domain of MLK3 (UniProt entry Q16584; aa 43–104), respectively, between BamHI and EcoRI sites, were transformed into the Escherichia coli strain Rosetta(DE3)pLysS. DNA fragments encoding the SH3 domain of MLK1 (UniProt entry P80192; aa 52–116), MLK2 (UniProt entry Q02779; aa 16–81), and MLK4 (UniProt entry Q5TCX8; aa 38–102) were commercially prepared as gBlocks® Gene Fragments (Integrated DNA Technologies, Inc.). All coding regions were codon-optimized for E. coli expression. DNA fragments were cleaved with BamHI-HF® and EcoRI-HF® (New England Biolabs) and subsequently ligated into pGex-2T vector. […]

Series [2] deals with GST-MLK1 SH3. Briefly: specificity ELISA, MLK1. Format: binding, human. The following applies: biotinylated peptide ≈2 μM on NeutrAvidin; GST-SH3 0.15 μM, 1–1.5 h; anti-GST-HRP; triplicate (Fig. 8). On the procedure: as §1, §2
A further series deals with MLK3 SH3 domain Y52A. Kind of series: binding to Y52A mutant of MLK3 SH3. Details: species or system human. The conditions noted are these: data not shown. The text has this: Two plasmids, gifts from Dr. Gerardo Morfini, University of Illinois at Chicago, encoding a GST protein fused to either the WT or mutant Y52A of the SH3 domain of MLK3 (UniProt entry Q16584; aa 43–104), respectively, between BamHI and EcoRI sites, were transformed into the Escherichia coli strain Rosetta(DE3)pLysS. DNA fragments encoding the SH3 domain of MLK1 (UniProt entry P80192; aa 52–116), MLK2 (UniProt entry Q02779; aa 16–81), and MLK4 (UniProt entry Q5TCX8; aa 38–102) were commercially prepared as gBlocks® Gene Fragments (Integrated DNA Technologies, Inc.). All coding regions were codon-optimized for E. coli expression. DNA fragments were cleaved with BamHI-HF® and EcoRI-HF® (New England Biolabs) and subsequently ligated into pGex-2T vector. The resulting DNA constructs, pGex-MLK1 SH3, pGex-MLK2 SH3, and pGex-MLK4 SH3 (verified by sequencing) were transformed into E. coli strain BL21(DE3).

Series [3] deals with GST-MLK3 SH3. Briefly: specificity ELISA, MLK3. The series is classed as binding, human. The conditions noted are these: biotinylated peptide ≈2 μM on NeutrAvidin; GST-SH3 0.15 μM, 1–1.5 h; anti-GST-HRP; triplicate (Fig. 8). The procedure: as §1, §2
The subject of another series is GST tag. Briefly: binding of MIP to GST tag. The following applies: ELISA. The procedure: After three washes with PBS containing 0.1% Tween 20 (PBST), retention of the SH3 domain fusion protein in wells was detected with an anti-GST antibody conjugated to horseradish peroxidase (HRP) (GE Healthcare; 45 min; 1:5000 in PBST). Following three washes with PBST, the chromogenic substrate solution 2,2-azinobis(3-ethylbenzthiazoline-6-sulfonic acid) (ABTS; Pierce); 10 ml of 50 mM sodium citrate, pH 4.0; and 100 μl of 3% H2O2 were added to the plate (100 μl/well). The absorbance was measured at 405 nm with a POLARstar OPTIMA microtiter plate reader (BMG Labtech).

In series [4] the test system is GST-MLK4 SH3. Briefly: specificity ELISA, MLK4. Format: binding, human. The conditions noted are these: biotinylated peptide ≈2 μM on NeutrAvidin; GST-SH3 0.15 μM, 1–1.5 h; anti-GST-HRP; triplicate (Fig. 8). The procedure: as §1, §2
Another series concerns SH3 domain of MLK3. The following applies: cited from earlier work. The text has this: Mixed-lineage protein kinase 3 (MLK3) is widely expressed in a variety of normal and cancerous tissues, such as brain, lung, liver, heart, breast, kidney, pancreas, and skeletal muscle ([34][–][36]). MLK3, also known as MAP3K11, is a serine/threonine protein kinase involved in regulating the JNK, p38, and ERK pathways ([37][–][42]). It is composed of several modules: an SH3 domain, a kinase domain, tandem leucine zippers, a Cdc42/Rac interactive binding (CRIB) motif, several linker regions, and a proline-rich C-terminal tail ([39], [43]). According to the BioGRID interaction database ([44]), M ...

The subject of another series is GST fusion partner. Briefly: phage ELISA of phage-displayed MIP on GST fusion partner. The following applies: duplicate (Fig. 1). The series is classed as binding. On the procedure:
(§3) Figure 1. […] The presence of virions in the supernatant was determined by coating the wells of the microtiter plate with an anti-M13 mAb (anti-M13 Ab). Virions, which were retained in the microtiter plate wells, were detected with anti-M13 mAb conjugated to HRP. […] See also Fig. S1.
Screens for peptide ligands were performed following a protocol published previously ([11]). The purified target protein, GST-MLK3 SH3-WT, was prebound to GSH magnetic beads (Pierce, catalogue number 88821), and nonspecific binding sites were blocked with phosphate-buffered saline (PBS; 137 mM NaCl, 3 mM KCl, 8 mM Na2HPO4, 1.5 mM KH2PO4) containing 3% (w/v) bovine serum albumin (BSA). […] After three rounds of affinity selection, individual phage clones were isolated, and their binding was evaluated via phage ELISA ([11]). Positive clones were then sequenced.

In series [5] the test system is GST-MLK3 SH3. Kind of series: phage ELISA of phage-displayed MIP and variants on GST-MLK3 SH3. The conditions noted are these: original clone/MIP, anti-M13 mAb-HRP detection, experiments in duplicate, averaged. Format: binding, human. The procedure: as §3
Figure 2. […] The MIP sequence, NH2-[…]-COOH, was fused to the N terminus of the pIII capsid protein of bacteriophage M13 ([51]) to facilitate type 3 pentavalent display. Systematic alanine replacements in the peptide were generated by Kunkel mutagenesis ([11]); Ala-1 and Ala-14 were replaced with Val. […] The signal for binding of MIP (WT) to GST-MLK3 SH3 is set as 100%, and other values are normalized to it. […] See also Fig. S2.
Screens for peptide ligands were performed following a protocol published previously ([11]). […] After three rounds of affinity selection, individual phage clones were isolated, and their binding was evaluated via phage ELISA ([11]). […]
All constructs were generated via Kunkel mutagenesis ([11], [57], [58]) and facilitated type 3 (pentavalent) display. […] All constructs were verified by DNA sequencing, and phage clones were evaluated for their binding to the target (GST-MLK3 SH3) via phage ELISA ([11]). […]

The series “SEC” deals with the molecule itself. Kind of series: SEC.
The target in series [6] is T1, GST-MLK3 SH3(43–104) (human, UniProt Q16584 43-104).
T1 construct: also called GST-MLK3 SH3-WT; SH3 WT
T1 sequence (looked up): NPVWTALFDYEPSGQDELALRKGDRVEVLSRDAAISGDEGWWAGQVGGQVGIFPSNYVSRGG
Kind of series: ELISA. The following applies: both partners purified.

The target in series [7] is T2, GST-MLK4 SH3 (UniProt Q5TCX8 38-102).
T2 construct: also called SH3 domain of MLK4
T2 sequence (looked up): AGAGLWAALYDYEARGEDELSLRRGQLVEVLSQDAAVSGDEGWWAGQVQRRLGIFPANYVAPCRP
Briefly: ELISA. The conditions noted are these: both partners purified.

Series [8] deals with T3, GST-MLK1 SH3 (UniProt P80192 52-116).
T3 construct: also called SH3 domain of MLK1
T3 sequence (looked up): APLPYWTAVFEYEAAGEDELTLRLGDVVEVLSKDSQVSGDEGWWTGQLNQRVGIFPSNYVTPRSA
Kind of series: ELISA. The conditions noted are these: both partners purified.

For series [9], the target named is T4, GST-MLK2 SH3 (UniProt Q02779 16-81).
T4 construct: also called SH3 domain of MLK2
T4 sequence (looked up): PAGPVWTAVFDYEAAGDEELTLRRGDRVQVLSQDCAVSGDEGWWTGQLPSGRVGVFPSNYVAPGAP
Briefly: ELISA. The conditions noted are these: both partners purified.

In series [10] the target is T1, GST-MLK3 SH3(43–104). Briefly: ELISA; competition ELISA: GST-MLK3 SH3 (5 μg/ml) preincubated 1–1.5 h with ≈0.01–100 μM unlabeled competitor peptide, then 45 min on biotinylated MIP (≈2 μM) captured via NeutrAvidin; anti-GST-HRP detection; GST tag tested as a control. The following applies: both partners purified.

Take `CC[C@H](C)[C@H](NC(=O)[C@H](C)N)C(=O)N[C@@H](CCCNC(=N)N)C(=O)N[C@H](C(=O)N[C@@H](CC(N)=O)C(=O)N1CCC[C@H]1C(=O)N[C@@H](CC(N)=O)C(=O)NCC(=O)N[C@H](C(=O)N[C@@H](Cc1c[nH]c2ccccc12)C(=O)N[C@@H](CO)C(=O)N[C@@H](CCCNC(=N)N)C(=O)N[C@@H](CCC(N)=O)C(=O)N[C@@H](C)C(=O)N[C@@H](CCC(=O)O)C(=O)N[C@H](C(=O)N[C@H](C(=O)N[C@@H](CCC(=O)O)C(=O)N[C@@H](CO)C(=O)O)C(C)C)[C@@H](C)O)[C@@H](C)O)[C@@H](C)CC` [MIP]: the “binding to MLK2 SH3” value in the series with GST-MLK2 SH3 [1] is listed as “did not bind”. The “binding to MLK1 SH3” value in the series with GST-MLK1 SH3 [2] is “bound”. In addition, the “effect of SH3 mutation Y52A on peptide binding” value in the series on MLK3 SH3 domain Y52A was “disrupts binding”. The “binding to MLK3 SH3” value with GST-MLK3 SH3 [3] is “bound”. Moreover, the “interaction with GST tag” value in the series with GST tag was “no interactions”. Besides, the “binding to MLK4 SH3” value in the series on GST-MLK4 SH3 [4] is “bound”.
Regarding “HCV NS5A: hepatitis C virus nonstructural 5A protein”, in the series with SH3 domain of MLK3, the “interaction with SH3 domain of MLK3” value is on record as “interact with the SH3 domain of MLK3 via a PXXPXR motif”.
Take “NH2-AIRINPNGTWSRQAETVES-COOH [phage-displayed MIP, MIP fused to the N terminus of the pIII capsid protein of bacteriophage M13]”: the “binding to GST fusion partner in phage ELISA” value in the series with GST fusion partner is reported as “not the GST fusion partner”. The “binding to GST-MLK3 SH3 in phage ELISA” value with GST-MLK3 SH3 [5] is on record as “bind to the WT form of the MLK3 SH3 domain”.

B1: MLK3 SH3(41–105)-MIP(1–13) fusion protein (other, human)
chain: YANPVWTALFDYEPSGQDELALRKGDRVEVLSRDAAISGDEGWWAGQVGGQVGIFPSNYVSRGGGAIRINPNGTWSRQ
notes: also called the WT construct
Consider B1, for which the binding result in “SEC” is “binds”.

B2: biotinylated NS5A peptide ([…]-GGG-K-biotin) (peptide)
peptide: KKAPTPPPRRRRGGGK(Biotin)
notes: also called immobilized NS5A; source: synthetic peptide
Regarding B2, the binding result in the series with GST-MLK3 SH3(43–104) [6], with GST-MLK4 SH3 [7], with GST-MLK1 SH3 [8] and in the series with GST-MLK2 SH3 [9] was “binds” in each case.

B3: unlabeled MIP (synthetic) (peptide)
peptide: AIRINPNGTWSRQAETVES
notes: also called MIP(1–19); soluble MIP peptide; source: synthetic peptide
With B3, the IC50 was 15.8 ± 0.4 µM in the series with GST-MLK3 SH3(43–104) [10] and 6.6 ± 1.6 µM in the series with GST-MLK3 SH3(43–104) [6].
